Reference: US12264134B2 (Merck Sharp & Dohme LLC, priority 2018, dated 2025)

Biological target: IDO1 (Homo sapiens, UniProt P14902)
Experiment: IDO1 Cellular Assay in HeLa Cells Stimulated with IFNγ
Assay type: cell-based
Conditions: read-out: HeLa Cell Potency, IC50

IDO1, sequence (P14902 whole entry): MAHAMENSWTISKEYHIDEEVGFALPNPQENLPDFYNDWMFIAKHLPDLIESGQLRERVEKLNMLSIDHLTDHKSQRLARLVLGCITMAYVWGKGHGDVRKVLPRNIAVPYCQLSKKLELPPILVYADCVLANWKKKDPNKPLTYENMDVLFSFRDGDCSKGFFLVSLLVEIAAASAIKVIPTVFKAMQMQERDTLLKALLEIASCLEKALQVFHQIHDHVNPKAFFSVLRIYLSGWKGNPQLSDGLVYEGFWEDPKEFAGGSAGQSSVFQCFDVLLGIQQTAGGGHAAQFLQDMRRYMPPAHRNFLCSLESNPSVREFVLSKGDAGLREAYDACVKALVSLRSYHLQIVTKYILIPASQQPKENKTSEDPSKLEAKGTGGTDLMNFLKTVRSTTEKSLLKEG

Structure (SMILES) | IC50 [nM]
Cc1cccc(N2CCN(C(=O)Cn3nc(C(=O)N4CCCC(NC(N)=O)C4)c4c3C[C@H]3C[C@@H]43)CC2)c1C (stereo partly drawn) [Example 272, N-{1-[(3bR,4aR)-1-{2-[4-(2,3-dimethylphenyl)piperazin-1-yl]-2-oxoethyl}-3b,4,4a,5-tetrahydro-1H-cyclopropa[3,4]cyclopenta[1,2-c]pyrazole-3-carbonyl]piperidin-3-yl}urea] | 16.3
Cc1cccc(N2CCN(C(=O)Cn3nc(C(=O)N4CCC5C(C4)NC(=O)N5C)c4c3C[C@H]3C[C@@H]43)CC2)c1C (stereo partly drawn) [Example 273, 5-[(3bR,4aR)-1-{2-[4-(2,3-dimethylphenyl)piperazin-1-yl]-2-oxoethyl}-3b,4,4a,5-tetrahydro-1H-cyclopropa[3,4]cyclopenta[1,2-c]pyrazole-3-carbonyl]-1-methyloctahydro-2H-imidazo[4,5-c]pyridin-2-one] | 38.7
Cc1cccc(N2CCN(C(=O)Cn3nc(C(=O)N4CCOCC4CO)c4c3C[C@H]3C[C@@H]43)CC2)c1C (stereo partly drawn) [Example 274, 1-[4-(2,3-dimethylphenyl)piperazin-1-yl]-2-{(3bR,4aR)-3-[3-(hydroxymethyl)morpholine-4-carbonyl]-3b,4,4a,5-tetrahydro-1H-cyclopropa[3,4]cyclopenta[1,2-c]pyrazol-1-yl}ethan-1-one] | 6.37
Cc1cccc(N2CCN(C(=O)Cn3nc(C(=O)N4CCC5(CC4)COC(CO)C5)c4c3C[C@H]3C[C@@H]43)CC2)c1C (stereo partly drawn) [Example 275, 1-[4-(2,3-dimethylphenyl)piperazin-1-yl]-2-{(3bR,4aR)-3-[3-(hydroxymethyl)-2-oxa-8-azaspiro[4.5]decane-8-carbonyl]-3b,4,4a,5-tetrahydro-1H-cyclopropa[3,4]cyclopenta[1,2-c]pyrazol-1-yl}ethan-1-one] | 0.8
Cc1cccc(N2CCN(C(=O)Cn3nc(C(=O)N4CCC(OCCO)CC4)c4c3C[C@H]3C[C@@H]43)CC2)c1C [Example 277, 1-[4-(2,3-dimethylphenyl)piperazin-1-yl]-2-{(3bR,4aR)-3-[4-(2-hydroxyethoxy)piperidine-1-carbonyl]-3b,4,4a,5-tetrahydro-1H-cyclopropa[3,4]cyclopenta[1,2-c]pyrazol-1-yl}ethan-1-one] | < 0.51
Cc1cccc(N2CCN(C(=O)Cn3nc(C(=O)N4CC[C@H](O)[C@@H](C)C4)c4c3C[C@H]3C[C@@H]43)CC2)c1C [Example 282, 1-[4-(2,3-dimethylphenyl)piperazin-1-yl]-2-{(3bR,4aR)-3-[(3S,4S)-4-hydroxy-3-methylpiperidine-1-carbonyl]-3b,4,4a,5-tetrahydro-1H-cyclopropa[3,4]cyclopenta[1,2-c]pyrazol-1-yl}ethan-1-one] | 0.97
Cc1cccc(N2CCN(C(=O)Cn3nc(C(=O)N4CCN(C(=O)CO)CC4)c4c3CC3CC43)CC2)c1C (stereo not drawn) [Example 287, 1-[4-(2,3-dimethylphenyl)piperazin-1-yl]-2-{3-[4-(hydroxyacetyl)piperazine-1-carbonyl]-3b,4,4a,5-tetrahydro-1H-cyclopropa[3,4]cyclopenta[1,2-c]pyrazol-1-yl}ethan-1-one] | 1.64
Cc1cccc(N2CCN(C(=O)Cn3nc(C(=O)N4C[C@H](O)C[C@H]4C)c4c3C[C@H]3C[C@@H]43)CC2)c1C [Example 292, 1-[4-(2,3-dimethylphenyl)piperazin-1-yl]-2-{(3bR,4aR)-3-[(2R,4R)-4-hydroxy-2-methylpyrrolidine-1-carbonyl]-3b,4,4a,5-tetrahydro-1H-cyclopropa[3,4]cyclopenta[1,2-c]pyrazol-1-yl}ethan-1-one] | 3.7
Cc1cccc(N2CCN(C(=O)Cn3nc(C(=O)N4C[C@@H](C)O[C@@H](C)C4)c4c3CC[C@@H](C(F)(F)F)C4)CC2)c1C [Example 295, 2-[(5R)-3-[(2R,6S)-2,6-dimethylmorpholine-4-carbonyl]-5-(trifluoromethyl)-4,5,6,7-tetrahydro-1H-indazol-1-yl]-1-[4-(2,3-dimethylphenyl)piperazin-1-yl]ethan-1-one] | 6.69
Cc1cccc(N2CCN(C(=O)Cn3nc(C(=O)N4CC[C@@H](O)[C@@H](F)C4)c4c3C[C@@H]3C[C@H]43)CC2)c1C [Example 298, 1-[4-(2,3-dimethylphenyl)piperazin-1-yl]-2-{(3bS,4aS)-3-[(3S,4R)-3-fluoro-4-hydroxypiperidine-1-carbonyl]-3b,4,4a,5-tetrahydro-1H-cyclopropa[3,4]cyclopenta[1,2-c]pyrazol-1-yl}ethan-1-one] | 14.3
Cc1cccc(N2CCN(C(=O)Cn3nc(C(=O)N4C[C@@H](C)O[C@@H](C)C4)c4c3C[C@@H]3C[C@H]43)CC2)c1C [Example 299, 2-{(3bS,4aS)-3-[(2R,6S)-2,6-dimethylmorpholine-4-carbonyl]-3b,4,4a,5-tetrahydro-1H-cyclopropa[3,4]cyclopenta[1,2-c]pyrazol-1-yl}-1-[4-(2,3-dimethylphenyl)piperazin-1-yl]ethan-1-one] | 15.1

Next, values leading:

IC50 [nM] | Structure (SMILES)
16.9 | Cc1cccc(N2CCN(C(=O)Cn3nc(C(=O)N4CCC(F)(CO)C4)c4c3CCC4)CC2)c1C (stereo not drawn) [Example 300, 1-[4-(2,3-dimethylphenyl)piperazin-1-yl]-2-{3-[3-fluoro-3-(hydroxymethyl)pyrrolidine-1-carbonyl]-5,6-dihydrocyclopenta[c]pyrazol-1(4H)-yl}ethan-1-one]
17.1 | Cc1cccc(N2CCN(C(=O)Cn3nc(C(=O)N4CC5(CO)CC4C5)c4c3CCC4)CC2)c1C [Example 301, 1-[4-(2,3-dimethylphenyl)piperazin-1-yl]-2-{3-[4-(hydroxymethyl)-2-azabicyclo[2.1.1]hexane-2-carbonyl]-5,6-dihydrocyclopenta[c]pyrazol-1(4H)-yl}ethan-1-one]
24.9 | Cc1cccc(N2CCN(C(=O)Cn3nc(C(=O)N4C[C@@H](C)O[C@@H](C)C4)c4c3CC[C@H](C(F)(F)F)C4)CC2)c1C [Example 302, 2-[(5S)-3-[(2R,6S)-2,6-dimethylmorpholine-4-carbonyl]-5-(trifluoromethyl)-4,5,6,7-tetrahydro-1H-indazol-1-yl]-1-[4-(2,3-dimethylphenyl)piperazin-1-yl]ethan-1-one]
29.9 | Cc1cccc(N2CCN(C(=O)Cn3nc(C(=O)N4C[C@@H](C)O[C@@H](C)C4)c4c3CCC(C(F)(F)F)C4)CC2)c1C (stereo partly drawn) [Example 303, 2-{3-[(2R,6S)-2,6-dimethylmorpholine-4-carbonyl]-5-(trifluoromethyl)-4,5,6,7-tetrahydro-1H-indazol-1-yl}-1-[4-(2,3-dimethylphenyl)piperazin-1-yl]ethan-1-one]
30.2 | Cc1cccc(N2CCN(C(=O)Cn3nc(C(=O)N4CC[C@@H](O)[C@@H](F)C4)c4c3CCC3(C4)CC3(F)F)CC2)c1C (stereo partly drawn) [Example 304, 2-{2,2-difluoro-3′-[(3S,4R)-3-fluoro-4-hydroxypiperidine-1-carbonyl]-6′,7′-dihydrospiro[cyclopropane-1,5-indazol]-1′(′4H)-yl}-1-[4-(2,3-dimethylphenyl)piperazin-1-yl]ethan-1-one]
48 | Cc1cccc(N2CCN(C(=O)Cn3nc(C(=O)N4CC5(CC(O)C5)C4)c4c3CCC4)CC2)c1C [Example 305, 1-[4-(2,3-dimethylphenyl)piperazin-1-yl]-2-[3-(6-hydroxy-2-azaspiro[3.3]heptane-2-carbonyl)-5,6-dihydrocyclopenta[c]pyrazol-1(4H)-yl]ethan-1-one]
55.4 | Cc1cccc(N2CCN(C(=O)Cn3nc(C(=O)N4CC5CC(C4)C5O)c4c3CCC4)CC2)c1C (stereo not drawn) [Example 306, 1-[4-(2,3-dimethylphenyl)piperazin-1-yl]-2-[3-(6-hydroxy-3-azabicyclo[3.1.1]heptane-3-carbonyl)-5,6-dihydrocyclopenta[c]pyrazol-1(4H)-yl]ethan-1-one]
71.4 | Cc1cccc(N2CCN(C(=O)Cn3nc(C(=O)N4CC[C@H](O)[C@H](F)C4)c4c3C[C@@H]3C[C@H]43)CC2)c1C [Example 307, 1-[4-(2,3-dimethylphenyl)piperazin-1-yl]-2-{(3bS,4aS)-3-[(3R,4S)-3-fluoro-4-hydroxypiperidine-1-carbonyl]-3b,4,4a,5-tetrahydro-1H-cyclopropa[3,4]cyclopenta[1,2-c]pyrazol-1-yl}ethan-1-one]
400 | Cc1cccc(N2CCN(C(=O)Cn3nc(C(=O)N4C[C@@H](O)[C@@H](O)C4)c4c3CCC4)CC2)c1C [Example 308, 2-{3-[(3R,4S)-3,4-dihydroxypyrrolidine-1-carbonyl]-5,6-dihydrocyclopenta[c]pyrazol-1(4H)-yl}-1-[4-(2,3-dimethylphenyl)piperazin-1-yl]ethan-1-one]
410 | Cc1cccc(N2CCN(C(=O)Cn3nc(C(=O)N4C[C@H](O)[C@@H](O)C4)c4c3CCC4)CC2)c1C [Example 309, 2-{3-[(3S,4S)-3,4-dihydroxypyrrolidine-1-carbonyl]-5,6-dihydrocyclopenta[c]pyrazol-1(4H)-yl}-1-[4-(2,3-dimethylphenyl)piperazin-1-yl]ethan-1-one]
1.86 | Cc1cccc(N2CCN(C(=O)Cn3nc(C(=O)N4C[C@@H](C)O[C@@H](C)C4)c4c3CC3CC43)CC2)c1C (stereo partly drawn) [Example 310, 2-{3-[(2R,6S)-2,6-dimethylmorpholine-4-carbonyl]-3b-4,4a,5-tetrahydro-1H-cyclopropa[3,4]cyclopenta[1,2-c]pyrazol-1-yl}-1-[4-(2,3-dimethylphenyl)piperazin-1-yl]ethan-1-one]
4.39 | Cc1cccc(N2CCN(C(=O)Cn3nc(C(=O)N4C[C@@H](C)O[C@@H](C)C4)c4c3C3CC3C4)CC2)c1C (stereo partly drawn) [Example 311, 2-{3-[(2R,6S)-2,6-dimethylmorpholine-4-carbonyl]-4,4a,5,5a-tetrahydro-1H-cyclopropa[4,5]cyclopenta[1,2-c]pyrazol-1-yl}-1-[4-(2,3-dimethylphenyl)piperazin-1-yl]ethan-1-one]
1.74 | Cc1c(Cl)cccc1N1CCN(C(=O)Cn2nc(C(=O)N3CCC(OCCO)CC3)c3c2C[C@H]2C[C@@H]32)C2(CC2)C1 [Example 312, 1-(7-(3-chloro-2-methylphenyl)-4,7-diazaspiro[2.5]octan-4-yl)-2-((3bR,4aR)-3-(4-(2-hydroxyethoxy)piperidine-1-carbonyl)-3b,4,4a,5-tetrahydro-1H-cyclopropa[3,4]cyclopenta[1,2-c]pyrazol-1-yl)ethan-1-one]
